This is an account of results in publication PMC3849007 (Journal of Experimental & Clinical Cancer Research : CR, 2013).

For data set [1], the target named is T1, M3 muscarinic receptor (Homo sapiens, UniProt P20309).
T1 construct: purchased Cerep (ExpresSProfile screen, contract service)
As to the kind of experiment: Cerep ExpresSProfile receptor screen, M3. The conditions noted are these: data not shown, read-out: % inhibition of ligand binding, M3 muscarinic receptor. The protocol:
(§1) To investigate the molecular bases of cardio toxicity, the agent was tested for its potential to interact with a panel of 54 pharmacological receptors, the majority being human recombinant receptors (Cerep ExpresSProfile screen) (http://www.cerep.fr).

Data set [2] relates to anaesthetised guinea pig. The data set can be described thus: Cardiovascular effects in anaesthetised guinea pig. Format: in vivo. The conditions noted are these: escalating iv doses 0.25, 0.5, 1 mg/kg, 60 min apart. The protocol:
After anaesthesia with approximately 40 to 60 mg/kg (i.p.) sodium pentobarbitone, a jugular vein was cannulated for administration of the vehicle or test substance. Arterial blood pressure (systolic, diastolic and mean) was measured via a catheter inserted into the carotid artery, heart rate was derived electronically from the pressure waveform and a sample of arterial blood determined blood gases (PO2 and PCO2), O2 saturation, standard bicarbonate (HCO3), pH and base excess before the start of the experiment. Electrocardiogram (ECG) limb electrodes recorded the standard lead II configuration and QTcB interval (calculated as QTcB = QT/(√RR)). The animal was allowed to stabilise after completion of the surgical preparation for a period of at least 15 min. Then, after a further 10 min period of continuous recording of ECG and haemodynamic variables, the test substance or vehicle was administered intravenously as 3 iv infusions with each administration separated by 60 min.
Several limitations exist in the use of mouse and rat models for the study of cardiotoxic effects in pharmacology, which regard differences in myocardial function compared to the human heart. […]

The target of data set [3] is T2, M1 muscarinic receptor (Homo sapiens, UniProt P11229).
T2 construct: purchased Cerep (ExpresSProfile screen, contract service)
T2 sequence (P11229 whole entry): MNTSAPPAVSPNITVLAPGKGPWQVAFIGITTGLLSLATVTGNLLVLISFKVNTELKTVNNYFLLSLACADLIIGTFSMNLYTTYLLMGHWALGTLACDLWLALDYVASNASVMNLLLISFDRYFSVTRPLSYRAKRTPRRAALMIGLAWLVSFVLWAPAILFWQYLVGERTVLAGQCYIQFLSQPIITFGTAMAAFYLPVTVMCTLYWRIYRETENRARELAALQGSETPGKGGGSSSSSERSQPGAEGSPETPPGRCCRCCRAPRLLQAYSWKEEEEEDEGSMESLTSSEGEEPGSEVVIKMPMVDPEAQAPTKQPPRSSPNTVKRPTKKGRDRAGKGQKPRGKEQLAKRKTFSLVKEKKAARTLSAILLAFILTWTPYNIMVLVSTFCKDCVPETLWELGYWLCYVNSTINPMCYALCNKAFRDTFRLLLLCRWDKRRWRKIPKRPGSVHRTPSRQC
The data set can be described thus: Cerep ExpresSProfile receptor screen, M1. The conditions noted are these: data not shown, read-out: % inhibition of ligand binding, M1 muscarinic receptor. The method, then: as §1

Data set [4] concerns the target T3, hERG (Homo sapiens, UniProt Q12809).
T3 construct: expressed in transfected cells; host or cells: HEK293
As to the kind of experiment: hERG tail current inhibition, patch clamp assay. The conditions noted are these: human, HEK293 cells (hERG study), 10 μM, HEK293 cells, read-out: hERG % inhib. (10 μM). Format: cell-based. The method, then: (§2) For hERG study, HEK293 cells were cultured (1–7 days) in DMEM/GlutaMax-1 + 10% FBS and were plated on collagen-coated dishes (about 2×10^4 cells/dish). The cell was held at -80 mV. A 50-millisecond pulse to -40 mV was delivered to measure the leaking currents, which were subtracted from the tail currents online. […] This paradigm was delivered once every 5 seconds to monitor the current amplitude. After the current amplitude stabilized, the test compound was delivered to the extracellular medium by a rapid solution changer perfusion system. During perfusion, the cell was repetitively stimulated with the protocol described above, and the current amplitude was continuously monitored. Data were acquired and analyzed by using pClamp (Axon Instruments), and Excel (Microsoft), and are reported as mean and individual values. The degree of inhibition (%) was obtained by measuring the tail current amplitude before and after drug superfusion (the difference current was normalized to control and multiplied by 100 to obtain the percent of inhibition). […] The concentration-response relationship of each compound was constructed from the percentage reductions of current amplitude by sequential concentrations. β2-adrenergic receptor CHO expressing cells were used for the receptor inhibition assay as described. The results are expressed as a percent of inhibition of control specific binding (100 - (measured specific binding/control specific binding) × 100)) obtained in the presence of the test compounds. The specific ligand binding to the receptors is defined as the difference between the total binding and the nonspecific binding determined in the presence of an excess of unlabelled ligand. All the in-vivo experiments were carried out at the Regina Elena Cancer Institute. All procedures involving animals and care were performed in compliance with our institutional animal care guidelines and with international directives (directive 2010/63/EU of the European parliament and of the council; Guide for the Care and Use of Laboratory Animals, United States National Research Council, 2011).

For data set [5], the target named is T4, hERG (human Ether-a-go-go Related Gene) tail current (Homo sapiens, UniProt Q12809).
T4 construct: expressed in transfected cells; host or cells: HEK293
T4 sequence (Q12809 whole entry): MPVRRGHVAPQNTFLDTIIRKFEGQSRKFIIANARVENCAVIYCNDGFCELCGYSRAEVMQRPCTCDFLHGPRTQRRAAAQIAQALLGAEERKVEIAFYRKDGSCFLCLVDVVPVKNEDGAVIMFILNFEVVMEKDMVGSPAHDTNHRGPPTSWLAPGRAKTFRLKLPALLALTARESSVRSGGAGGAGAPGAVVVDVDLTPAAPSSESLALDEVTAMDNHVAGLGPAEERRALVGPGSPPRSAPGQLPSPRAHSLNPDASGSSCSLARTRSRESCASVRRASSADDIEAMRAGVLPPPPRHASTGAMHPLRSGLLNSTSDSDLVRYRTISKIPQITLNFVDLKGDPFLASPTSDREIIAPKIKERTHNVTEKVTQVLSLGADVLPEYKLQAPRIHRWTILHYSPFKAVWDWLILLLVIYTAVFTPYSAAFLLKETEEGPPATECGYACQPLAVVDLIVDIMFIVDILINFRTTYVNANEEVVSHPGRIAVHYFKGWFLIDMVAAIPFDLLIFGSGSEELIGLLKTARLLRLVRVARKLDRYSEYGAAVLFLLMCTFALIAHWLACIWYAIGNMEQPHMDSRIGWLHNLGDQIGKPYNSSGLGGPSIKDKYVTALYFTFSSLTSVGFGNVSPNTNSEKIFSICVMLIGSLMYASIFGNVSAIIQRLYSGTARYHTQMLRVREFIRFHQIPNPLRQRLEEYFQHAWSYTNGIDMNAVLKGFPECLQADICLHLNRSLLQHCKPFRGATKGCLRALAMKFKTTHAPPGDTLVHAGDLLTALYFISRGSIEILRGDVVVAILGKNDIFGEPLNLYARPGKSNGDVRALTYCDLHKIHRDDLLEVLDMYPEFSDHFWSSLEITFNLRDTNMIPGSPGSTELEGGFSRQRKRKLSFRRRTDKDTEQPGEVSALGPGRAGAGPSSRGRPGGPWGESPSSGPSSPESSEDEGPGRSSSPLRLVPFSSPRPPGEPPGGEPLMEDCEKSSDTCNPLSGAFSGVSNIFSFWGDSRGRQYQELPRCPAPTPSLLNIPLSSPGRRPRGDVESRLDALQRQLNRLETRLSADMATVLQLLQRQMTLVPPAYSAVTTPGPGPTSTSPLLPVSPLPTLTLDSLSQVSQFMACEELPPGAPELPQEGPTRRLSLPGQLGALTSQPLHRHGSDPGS
As to the kind of experiment: hERG tail current inhibition, patch clamp assay. The class given is cell-based. The protocol: as §2

Data set [6] relates to h-Tel quadruplex (Q) DNA, 5'-biotin-d[AG3(T2AG3)3] (DNA, G4) AGGGTTAGGGTTAGGGTTAGGG
As to the kind of experiment: surface plasmon resonance. The conditions noted are these: 200 mM KCl; 10 mM HEPES, 3 mM EDTA, 0.01% P20, pH 7.4.

Details of data set [7]: method as in doi:10.1016/S0040-4020(01)90102-4. The conditions noted are these: cited from earlier work.
The subject of data set [8] is γH2AX in BJ-EHLT fibroblasts. The data set can be described thus: Immunofluorescence for γH2AX (DNA damage response). The class given is cell-based, human. The conditions noted are these: 0.5 μM, 24 hrs. The protocol: Cells were fixed in 2% formaldehyde and permeabilized in 0.25% Triton X100 in PBS for 5 min at room temperature. For immunolabeling, cells were incubated with primary antibody, then washed in PBS and incubated with the secondary antibodies. The following primary antibodies were used: pAb and mAb anti-TRF1 (Abcam Ltd.; Cambridge UK); mAb (Upstate, Lake Placid, NY) and pAb anti-γH2AX (Abcam). The following secondary antibody were used: TRITC conjugated Goat anti Rabbit, FITC conjugated Goat anti Mouse (Jackson ImmunoResearch Europe Ltd., Suffolk, UK). Fluorescence signals were recorded by using a Leica DMIRE2 microscope equipped with a Leica DFC 350FX camera and elaborated by a Leica FW4000 deconvolution software (Leica, Solms, Germany). This system permits to focus single planes inside the cell generating 3D high-resolution images. For quantitative analysis of γH2AX positivity, 200 cells on triplicate slices were scored. For TIF’s analysis, in each nucleus a single plane was analyzed and at least 50 nuclei per sample were scored.

Data set [9] has as its system BJ-hTERT fibroblasts. As to the kind of experiment: Proliferation assay, normal telomerised fibroblasts. The class given is cell-based, human. The conditions noted are these: 0.5 μM, culture day 2 to 8. The protocol:
BJ fibroblasts expressing hTERT (BJ-hTERT) or hTERT and SV40 early region (BJ-EHLT), were obtained as previously reported. Cells were grown in Dulbecco Modified Eagle Medium (D-MEM, Invitrogen Carlsbad, CA, USA) supplemented with 10% fetal calf serum, 2 mM L-glutamin and antibiotics.
5 × 10^4 cells were seeded in 60-mm Petri plates (Nunc, MasciaBrunelli, Milano, Italy) and 24 h after plating, 0.5 μM of freshly dissolved compound was added to the culture medium. Cell counts (Coulter Counter, Kontron Instruments, Milano, Italy) and viability (trypan blue dye exclusion) were determined daily, from day 2 to day 8 of culture.

Data set [10] relates to NCI60 panel. The data set can be described thus: NCI60 panel growth inhibition. The class given is cell-based, human.

T3 sequence (Q12809 whole entry): as the sequence (Q12809 whole entry) above
T1 sequence (P20309 whole entry): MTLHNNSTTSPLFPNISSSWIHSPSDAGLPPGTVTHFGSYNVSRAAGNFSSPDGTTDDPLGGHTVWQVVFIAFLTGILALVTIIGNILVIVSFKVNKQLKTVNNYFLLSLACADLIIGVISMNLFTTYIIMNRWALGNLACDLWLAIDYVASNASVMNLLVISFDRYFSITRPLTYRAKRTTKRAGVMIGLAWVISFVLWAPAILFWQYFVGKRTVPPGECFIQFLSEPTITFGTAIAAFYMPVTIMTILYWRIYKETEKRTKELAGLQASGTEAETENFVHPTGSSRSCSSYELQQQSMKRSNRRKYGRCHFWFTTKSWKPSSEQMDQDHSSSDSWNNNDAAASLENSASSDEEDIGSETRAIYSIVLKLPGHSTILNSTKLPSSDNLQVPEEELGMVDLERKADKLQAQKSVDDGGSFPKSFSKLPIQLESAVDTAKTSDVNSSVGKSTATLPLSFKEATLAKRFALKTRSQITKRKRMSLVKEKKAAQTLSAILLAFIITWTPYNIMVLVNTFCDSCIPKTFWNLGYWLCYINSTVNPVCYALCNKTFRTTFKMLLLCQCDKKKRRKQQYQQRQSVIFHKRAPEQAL

Regarding `Cc1cc2c3c([n+](C)c4ccc(F)cc4c3c1)-c1cc(F)ccc1N2C` [Compound 1, 3,11-Difluoro-6,8,13-trimethyl-8H-quino[4,3,2-kl]acridinium metho-sulfate], the inhibition at 1 µM in [1] and in [3] was above 95% throughout. Moreover, the “effect on QTcB interval” value in data set [2] (all doses, listed as RHPS4) is “marked and sustained increase in QTcB interval”. The “effect on heart rate” value in data set [2] (cumulative 1.75 mg/kg) is “dose-related decrease in heart rate”. For the same compound, the inhibition at 10 µM in data set [4] came to 100%. In [5], 0.2 µM corresponded to half-maximal inhibition (IC50). In addition, the K in [6] came out at 8.3e+06 M⁻¹. Also, in data set [7], the solubility result is listed as “high solubility”.

As to `CC(=O)Nc1ccc2c(c1)c1cccc3c1c([n+]2C)-c1ccccc1N3C` [Compound 3, 3-acetylamino-8,13-dimethyl-8H-quino[4,3,2-kl]-acridinium iodide], the “percentage of cells positive for γH2AX” value in [8] is reported as “less potent than the lead compound”. Moreover, the “inhibition of cell proliferation in normal telomerized fibroblasts” value in data set [9] is on record as “did not induce inhibition of cell proliferation”. For the same compound, the inhibition at 10 µM in [4] worked out at 21%. Further, it took 18 µM to reach half-maximal inhibition in data set [5] (IC50). The K in [6] amounted to 8e+06 M⁻¹. In [10] (Homo sapiens, NCI data, read-out: Mean GI50 value from the NCI60 panel), the GI50 (commonly the concentration at which growth is held to half of that of the control) came out at 81.3 µM. Also, the “effect on cell proliferation in a panel of different histotype tumor cell lines” value in data set [10] (several human cancer cell lines) is reported as “maintained an anti-proliferative effect”.
